Experiments:
[1] = target: T1, Cysteinyl leukotriene receptor 1 (Cavia porcellus, UniProt Q2NNR5); assay: Compound was evaluated for its ability to displace [3H]LTD4 from Cysteinyl leukotriene D4 receptor in guinea pig lung membranes; format: cell membranes, Membrane
T1 sequence (Q2NNR5 whole entry): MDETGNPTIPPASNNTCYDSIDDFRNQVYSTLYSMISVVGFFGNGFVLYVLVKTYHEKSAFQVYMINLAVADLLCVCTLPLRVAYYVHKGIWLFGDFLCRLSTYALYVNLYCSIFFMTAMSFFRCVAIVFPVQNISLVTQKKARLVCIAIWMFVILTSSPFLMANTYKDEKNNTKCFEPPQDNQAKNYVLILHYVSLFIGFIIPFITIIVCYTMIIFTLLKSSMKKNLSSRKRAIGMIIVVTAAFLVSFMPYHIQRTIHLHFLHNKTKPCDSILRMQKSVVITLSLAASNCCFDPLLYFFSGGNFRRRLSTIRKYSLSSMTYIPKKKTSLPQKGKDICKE

Cavia porcellus [2] = organism: Cavia porcellus; assay: (§1) Antagonistic activity against LTD4 induced contraction in guinea pig trachea; format: functional
Cavia porcellus [3] = organism: Cavia porcellus; assay: as §1; format: functional, organism-based; conditions: for Kb: read-out: pA2 (converted)
Homo sapiens = organism: Homo sapiens; assay: Antagonistic activity against LTD4 induced contraction in human bronchus; format: functional
[4] = target: T1, Cysteinyl leukotriene receptor 1; assay: Compound was evaluated for its ability to displace [3H]LTD4 from LTD4 receptor in guinea pig lung membranes; format: cell membranes, Membrane
Cavia porcellus [5] = organism: Cavia porcellus; assay: Antagonistic activity against LTD4 induced contraction in guinea pig lung parenchymal strips; format: functional; conditions: Lung parenchyma, read-out: pA2 (converted)
Cavia porcellus [6] = organism: Cavia porcellus; assay: Antagonistic activity against LTD4 induced contraction in guinea pig ileum; format: functional

Compound: CCCCC/C=C/C\C=C/C=C/C=C/[C@@H](Sc1ccc2c(=O)cc(C(=O)O)oc2c1)[C@H](O)CCCC(=O)O
- IC50 [1]: 100 nM

Compound: O=C(Nc1cccc2c(=O)cc(-c3nnn[nH]3)oc12)c1ccc(OCCCCc2ccccc2)cc1
- pKB (Cavia porcellus [2]): 7.5

Compound: O=C(O)CCS[C@@H](CC(=O)O)c1ccccc1CCCCCCCCc1ccccc1
- pKB (Cavia porcellus [2]): 7.6
- Ki [1]: 60 nM

Compound: CCCCCCCCC/C=C\C=C\[C@@H](SCCC(=O)O)[C@@H](O)c1cccc(-c2nnn[nH]2)c1
- Kb (Cavia porcellus [3]): 7.94 nM

Compound: CCC(CC)(CC(=O)Nc1cccc(/C=C/c2nc(C3CCC3)cs2)c1)C(=O)O
- pKB (Homo sapiens): 9.3

Compound: CCCc1c(OCCCOc2cc(NC(=O)c3nn[nH]n3)c(C)cc2Cl)ccc(C(C)=O)c1O [CGP-35949]
- Kb (Cavia porcellus [3]): 39.8 nM

Compound: CCCc1c(OCC(O)COc2ccc3c(=O)cc(C(=O)O)oc3c2CCC)ccc(C(C)=O)c1O (stereo unspecified) [FPL-55712]
- Kb (Cavia porcellus [3]): 200 nM

Compound: COc1cc(C(=O)NS(=O)(=O)c2ccccc2)ccc1Cn1ncc2ccc(NC(=O)OC3CCCC3)cc21 [ICI-198615]
- Ki [4]: 0.3 nM
- Kb (Cavia porcellus [3]): 0.0794 nM

Compound: CCCc1c(OCCCS(=O)(=O)c2ccc(C(=O)CCC(=O)O)cc2)ccc(C(C)=O)c1O [L-648051]
- Kb (Cavia porcellus [3]): 50.1 nM

Compound: CCCc1c(OCCCSc2ccc([C@@H](O)[C@H](C)CC(=O)O)cc2)ccc(C(C)=O)c1O [L-649923]
- Ki [4]: 400 nM
- Kb (Cavia porcellus [3]): 63.1 nM

Compound: CCCc1c(COc2ccc(Cc3nnn[nH]3)cc2)ccc(C(C)=O)c1O [LY-163443]
- pKB (Cavia porcellus [2]): 7.5

Compound: CCCc1c(OCCCCc2nnn(CCCCc3nnn[nH]3)n2)ccc(C(C)=O)c1O [LY-203647]
- pKB (Cavia porcellus [2]): 6.4

Compound: CN(C)C(=O)CCSC(SCCC(=O)O)c1cccc(/C=C/c2ccc3ccc(Cl)cc3n2)c1 (stereo unspecified) [MK-571]
- pKB (Cavia porcellus [2]): 9.3
- Ki [1]: 0.2 nM

Compound: O=C(O)CCS[C@H](c1ccccc1CCCCCCCCc1ccccc1)[C@@H](O)C(=O)O [POBILUKAST]
- Kb (Cavia porcellus [3]): 2.51 nM

Compound: c1ccc(Cc2nn[nH]n2)c(COc2ccc(OCc3ccc4ccccc4n3)cc2)c1 [RG-12525]
- Kb (Cavia porcellus [5]): 3.98 nM

Compound: O=S(=O)(Nc1cccc(OCc2ccc3ccccc3n2)c1)C(F)(F)F [RITOLUKAST]
- pKB (Cavia porcellus [2]): 7.8

Compound: CCCc1c(OCCCOc2ccc3c(c2CCC)OC(C)(CCC(=O)O)CC3=O)ccc(C(C)=O)c1O (stereo unspecified) [SC-39070]
- pKB (Cavia porcellus [6]): 8.2

Compound: O=C(O)c1ccccc1Nc1cccc(OCc2ccc3ccccc3n2)c1 [SR-2640]
- pKB (Cavia porcellus [2]): 8.7

Compound: CCCc1c(OCCCCc2nnn[nH]2)ccc(C(C)=O)c1O [TOMELUKAST]
- pKB (Cavia porcellus [2]): 6.9

Compound: CCCc1c(OCCCSc2nnc(SCC(=O)O)s2)ccc(C(C)=O)c1O [YM-16638]
- IC50 (Cavia porcellus [3]): 160 nM

Compound: COc1cc(C(=O)NS(=O)(=O)c2ccccc2C)ccc1Cc1cn(C)c2ccc(NC(=O)OC3CCCC3)cc12 [ZAFIRLUKAST]
- pKB (Cavia porcellus [2]): 9.5

Source: ChEMBL document CHEMBL1125922, “Peptide leukotrienes: current status of research” (J Med Chem, 1991)
